# Source: patent publication US20210309669A1, “Heterocyclic Spiro Compounds As MAGL Inhibitors” (Pfizer Inc., priority 2018, published 2021)
# Where two headings read alike, the source gives them in different places.
# Legend:
# Assay type in all cases: biochemical
# [1] = biological target: T1, human recombinant FAAH (Homo sapiens, UniProt O00519); experiment: FAAH inhibition enzymatic assay (Arachidonoyl-AMC substrate); settings: 30 minute incubation; geometric mean; read-out: FAAH (T = 30 min) IC50
# T1 construct: purchased Cayman 10010183
# T1 sequence (O00519 1-579): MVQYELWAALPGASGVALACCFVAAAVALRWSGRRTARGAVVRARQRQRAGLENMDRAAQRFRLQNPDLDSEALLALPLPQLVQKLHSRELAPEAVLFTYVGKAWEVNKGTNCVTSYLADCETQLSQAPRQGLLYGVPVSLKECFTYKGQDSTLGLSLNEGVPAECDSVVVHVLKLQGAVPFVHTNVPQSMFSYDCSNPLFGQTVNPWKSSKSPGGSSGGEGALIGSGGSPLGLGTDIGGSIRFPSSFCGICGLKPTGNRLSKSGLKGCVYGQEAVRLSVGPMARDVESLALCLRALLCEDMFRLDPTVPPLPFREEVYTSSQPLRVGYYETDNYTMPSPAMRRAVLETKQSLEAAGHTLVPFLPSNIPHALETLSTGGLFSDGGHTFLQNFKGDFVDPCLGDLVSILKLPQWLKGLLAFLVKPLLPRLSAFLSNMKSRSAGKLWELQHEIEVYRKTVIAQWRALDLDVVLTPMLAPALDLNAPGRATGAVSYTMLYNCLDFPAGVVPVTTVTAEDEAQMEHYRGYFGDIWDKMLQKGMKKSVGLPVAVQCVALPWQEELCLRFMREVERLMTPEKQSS
# Method: Assessment of FAAH inhibition utilizes human recombinant FAAH and the fluorescent substrate, Arachidonoyl-AMC. 400 nL of a test compound at decreasing concentrations was spotted into a 384-well back plate (PerkinElmer, 6007279) using a Labcyte Echo, followed by addition of 10 μl of FAAH enzyme (Cayman 10010183) in assay buffer (50 mM Tris, pH 9.0, 1 mM EDTA, i.e. ethylenediaminetetraacetic acid). After a 30 minute incubation at room temperature, 10 μL of Arachidonyl-AMCA was added in assay buffer with 16% DMSO. […] The reaction was allowed to progress for 60 minutes, after which the plate was read on a Molecular Devices FlexStation reader at an Ex/Em of 355/460. Percent inhibitions were calculated based on controls wells containing either no compound (0% inhibition) or a control compound (e.g., an FAAH inhibitor whose activity is known or was previously reported in the literature, such as one with about 100% inhibition). IC50 values were generated based on a four parameter fit model using ABASE software from IDBS.
# [2] = biological target: T2, human recombinant Monoacylglycerol Lipase (Homo sapiens, UniProt Q99685); experiment: MAGL inactivation (enzyme progress curves, kinact/KI); settings: geometric mean
# T2 sequence (Q99685 1-303): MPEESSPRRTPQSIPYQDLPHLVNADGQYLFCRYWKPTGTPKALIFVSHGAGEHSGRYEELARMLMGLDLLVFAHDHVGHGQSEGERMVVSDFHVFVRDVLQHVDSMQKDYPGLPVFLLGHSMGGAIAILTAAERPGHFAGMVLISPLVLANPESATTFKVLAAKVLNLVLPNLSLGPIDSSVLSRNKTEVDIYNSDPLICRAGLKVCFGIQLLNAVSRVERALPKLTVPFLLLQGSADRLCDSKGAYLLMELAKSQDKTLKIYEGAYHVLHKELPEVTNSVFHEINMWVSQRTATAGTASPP
# Method: (§1) Assessment of MAGL inhibition utilizes human recombinant Monoacylglycerol Lipase and the fluorogenic substrate 7-hydroxycoumarinyl arachidonate (7-HCA, Biomol ST-502). 400 nL of a test compound at decreasing concentration (ranging from 150 μM down to 1.5 nM) was spotted into a 384-well back plate (PerkinElmer, 6007279) using a Labcyte Echo, followed by addition of 10 μL of MAGL enzyme in assay buffer (50 mM HEPES, pH 7.4, 100 mM NaCl, 5 mM MgCl2, 0.1% Triton X-100 and 25% glycerin). An equal volume of 7-HCA in assay buffer with 10% DMSO was added either immediately (T=0 min) or after a 30 minute incubation (T=30 min) to initiate the reaction. The final concentration of MAGL enzyme was […] and 7-HCA substrate was 5 μM. After these dilutions, the final concentration of the test compound ranged from 3 μM to 0.03 nM. The reaction was allowed to progress for 60 minutes, after which the plate was read at an Ex/Em of 340/465. Percent inhibitions were calculated based on control wells containing no compound (0% inhibition) and a control compound (e.g., a MAGL inhibitor whose activity is known or was previously reported in the literature, such as one with about 100% inhibition). IC50 values were generated based on a four parameter fit model using ABASE software from IDBS. See e.g., Wang, Y. et al., “A Fluorescence-Based Assay for Monoacylglycerol Lipase Compatible with Inhibitor Screening,” Assay and Drug Development Technologies, 2008, Vol. 6 (3) pp 387-393 (reporting an assay for measuring MAGL activity).
# To measure MAGL inactivation, the same protocol for the (T=0 min) MAGL inhibition IC50 assay was performed with data collected every minute to acquire enzyme progress curves at decreasing concentrations of compound.
# [3] = biological target: T2, human recombinant Monoacylglycerol Lipase; experiment: MAGL inhibition enzymatic assay (7-HCA fluorogenic substrate); settings: geometric mean
# Method: as §1
# [4] = 30 minute incubation before substrate, read-out: MAGL (T = 30 min) IC50
# [5] = substrate added immediately (T=0 min), read-out: MAGL (T = 0 min) IC50
Compound,IC50 [1] [µM],MAGL kinact/KI [2],"IC50 [3, 4] [µM]","IC50 [3, 5] [µM]"
"O=C(OC(C(F)(F)F)C(F)(F)F)N1CCC2(CC1)C[C@@H](NS(=O)(=O)CC1CC1)CO2 [Example 1, 1,1,1,3,3,3-Hexafluoropropan-2-yl (3R)-3-{[(cyclopropylmethyl)sulfonyl]amino}-1-oxa-8-azaspiro[4.5]decane-8-carboxylate]",> 30,2990 1/s per M,0.0276,0.292
"O=C(OC(C(F)(F)F)C(F)(F)F)N1CCC2(CCC(NS(=O)(=O)CC3CC3)CO2)CC1 (stereo not drawn) [Example 3, 1,1,1,3,3,3-Hexafluoropropan-2-yl 3-{[(cyclopropylmethyl)sulfonyl]amino}-1-oxa-9-azaspiro[5.5]undecane-9-carboxylate]",> 30,3160 1/s per M,0.0285,0.298
"O=C(OC(C(F)(F)F)C(F)(F)F)N1CCC2(CC1)C[C@@H](NS(=O)(=O)C1CC1)CO2 [Example 2, 1,1,1,3,3,3-Hexafluoropropan-2-yl (3R)-3-[(cyclopropylsulfonyl)amino]-1-oxa-8-azaspiro[4.5]decane-8-carboxylate]",> 30,2050 1/s per M,0.0347,0.369
